Our source for the IC50 values is US9226929B2, “Pharmaceutically active disubstituted triazine derivatives” (Bayer Intellectual Property GMBH, priority 2011, dated 2016).

For orientation: IC50 means the concentration that gives 50% inhibition.

Common to all, as to format: cell-based
For one assay, the system named is Hela cells. The assay is described as follows: Cell Viability Assay, Hela cells. Conditions: Homo sapiens, 72 h, Cell Titer Glo, read-out: Cell Viability - Hela cells (activity range), IC50. As to the method: (§1) 3.4 Cell Viability Assays
(§2) Hela- or MDAMB468-Cells were maintained in RPMI 1640 or McCoy's 5A cell culture medium+glutamine (PAN Biotech GmbH, Aidenbach, Germany; order no. PO4-22100; PO4-05500) supplemented with 10% fetal calf serum “Gold” (PAA Laboratories GmbH, Pasching, Austria; order no. A15-151) and grown at 37° C., 5% CO2. For the cell viability assay, cells were seeded with a density of 400 (Hela cells, DSMZ Braunschweig order no. ACC57) or 800 (MDAMB468 cells, ATCC order no. HTB-132) per well in 25 μL in 384-well plates (Greiner Bio-One, Frickenhausen, Germany; order no. 781080). After overnight incubation at 37° C./5% CO2, 25 nL or 75 nL compound were added to each sample well by using BIOMEK FXP Laboratory Automation Workstation (Beckman Coulter, USA). Wells with cells and 0.1% or 0,3% DMSO in culture medium were used as positive controls, wells with cells and 10 μM staurosporine in culture medium were used as negative controls. The cells were incubated with the compounds for 72 h at 37° C./5% CO2. For measurement of cell viability 25 μL Cell Titer Glo reagent (Promega, Madison, USA; order no. G7573), 1:2 diluted with cell culture medium, was added to each well. The 384we11-plates were placed for 2 min on a orbital microplate shaker and incubated for further 10 min at room temperature to stabilize the luminescence signal.
(§3) Luminescence was measured by Envision Plate Reader (Perkin Elmer, USA). IC50 values were calculated with the software Excel Fit (IDBS, Guildford, UK) from 3-fold dilution series comprising at least 8 concentrations in duplicates.
Background: In ATP-based viability assays light output follows the ATP content of the culture.

In another assay the test system is MDAMB468 cells. The assay is described as follows: Cell Viability Assay, MDAMB468 cells. Particulars: Homo sapiens, MDA-MB-468; 72 h, Cell Titer Glo; read-out: Cell Viability - MDAMB468 cells (activity range), IC50. The method, then:
as §1, §2, §3

The subject of assay [1] is LPS-induced TNF alpha release in PBMCs. In words: TNF alpha Release Assay. Particulars: Homo sapiens, PBMC, 1 μg/mL LPS, 6 h, read-out: TNF alpha release (activity range), IC50. As to the method:
3.3 TNF alpha Release Assay
Freshly isolated peripheral blood mononuclear cells (PBMCs) were seeded in 96-well cell culture plates with 200,000 cells in 100 μl cell culture medium (DMEM cell culture medium+glutamine from PAN Biotech GmbH, Aidenbach, Germany) supplemented with 10% fetal calf serum (PAA Laboratories GmbH, Pasching, Austria) per well and incubated overnight at 37° C., 5% CO2. To each well, 100 μL cell culture medium with 2× concentrated test compounds diluted from 10 mM DMSO stocks, or 100 μL DMEM with 0.4% DMSO for control wells, was added. The compounds of general formula (I) summarized in Table 6 were used in this assay. After incubation for 1 h at 37° C., 5% CO2, cells were stimulated with 1 μg/mL LPS (Lipopolysaccharides, Sigma, catalog #L4391-1 MG; 1 mg/ml stock solution), or left untreated for negative controls, and plates were incubated for 6 h at 37° C./5% CO2. The cell culture plates were centrifuged at 2000 rpm for 5 minutes, and supernatants were transferred to fresh 96-well polypropylene plates. 25 μL of supernatants were transferred into 96-well-plates of the human TNF alpha-tissue culture kit (Meso Scale Discovery, Gaithersburg, Md., USA), and manufacturer's instructions were followed for analysis of TNF alpha levels. […]

In the case of `NS(=O)(=O)Cc1cccc(Nc2ncnc(N3CCc4ncsc4C3)n2)c1` [Compound B45, 3-[(4-(6,7-Dihydrothiazolo[5,4-c]pyridin-5(4H)-yl)-1,3,5-triazin-2-yl)amino]benzenemethanesulfonamide], the IC50 in the assay with Hela cells and with MDAMB468 cells was 1 to 10 µM each time.

As to `NS(=O)(=O)Cc1cccc(Nc2ncnc(N3CCc4nc[nH]c4C3)n2)c1` [Compound B44, 3-[(4-(6,7-Dihydro-3H-imidazo[4,5-c]pyridin-5(4H)-yl)-1,3,5-triazin-2-yl)amino]benzenemethanesulfonamide], the IC50 in the assay on Hela cells and in the assay with MDAMB468 cells was greater than 10 µM in each case. As to `NS(=O)(=O)Cc1cccc(Nc2ncnc(N3Cc4cn[nH]c4C3)n2)c1` [Compound B51, 3-[(4-(Pyrrolo[3,4-c]pyrazol-5(1H,4H,6H)-yl)-1,3,5-triazin-2-yl)amino]-benzenemethanesulfonamide], the 50% inhibitory concentration (IC50) in the assay with Hela cells and with MDAMB468 cells was greater than 10 µM in each case. On to `COC[C@H]1CCCN1c1ncnc(Nc2cccc(CS(N)(=O)=O)c2)n1` [Compound B17, (R)-3-[(4-(2-(Methoxymethyl)pyrrolidin-1-yl)-1,3,5-triazin-2-yl)amino]benzenemethanesulfonamide], for which the IC50 in assay [1] lay in the range of 1 to 10 µM. In the case of `NS(=O)(=O)Cc1cccc(Nc2ncnc(N3CCCCC3)n2)c1` [Compound B1, 3-[(4-(Piperidin-1-yl)-1,3,5-triazin-2-yl)amino]benzenemethane sulfonamide], the IC50 in assay [1] is greater than 10 µM.
